This is an account of results in patent US10799605B2 (3B PHARMACEUTICALS GMBH, priority 2014, dated 2020).

In one assay the target is 5-HT2B (h) (Homo sapiens (Human), UniProt P41595). Briefly: ExpresSProfile: 5-hydroxytryptamine receptor 2B, agonist radioligand. The format is binding. The conditions noted are these: Reference Compound.
In assay [1] the target is T1, NTR1 (Homo sapiens (Human), UniProt P30989). The assay can be described thus: Functional Ca2+ mobilisation assay (example part II). The format is cell-based. Conditions: antagonist assay. From the text: Ca^2+ ions are usually kept at nanomolar levels in the cytosol of cells, and act in a number of signal transduction pathways as second messengers. […] Changes in calcium ion concentration in standard assay protocols can be readily detected with fluorescent dyes that emit light when changes in intracellular Ca2^+ ion concentration occur. Given the transient nature of these responses, they are often read with instrumentation that has ‘inject and read’ capability.
T1 sequence (P30989 whole entry): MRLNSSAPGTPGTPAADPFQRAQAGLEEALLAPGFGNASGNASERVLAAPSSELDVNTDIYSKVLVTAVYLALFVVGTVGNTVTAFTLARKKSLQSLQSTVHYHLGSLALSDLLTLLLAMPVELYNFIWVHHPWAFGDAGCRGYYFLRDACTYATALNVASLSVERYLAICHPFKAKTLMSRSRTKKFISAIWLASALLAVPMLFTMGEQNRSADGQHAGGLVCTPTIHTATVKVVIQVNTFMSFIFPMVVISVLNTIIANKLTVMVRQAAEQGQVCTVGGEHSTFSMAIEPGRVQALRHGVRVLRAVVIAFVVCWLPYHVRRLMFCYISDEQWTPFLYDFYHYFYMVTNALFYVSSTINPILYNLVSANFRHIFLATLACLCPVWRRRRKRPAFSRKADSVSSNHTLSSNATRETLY
HT29 or NTR1-expressing HEK293 cells were trypsinized and seeded into black flat clear-bottom 96-well plates (Corning, Amsterdam, The Netherlands) at 6×10^5 cells per well. After 24 h incubation at 37° C. and 5% CO2, cells were washed twice with wash buffer (130 mM NaCl, 5 mM KCl, 10 mM Hepes, 2 mM CaCl2, 10 mM Glucose, pH 7.4) and loaded with 100 μl of Ca5 dye (Molecular Devices, Biberach, Germany) for 1 h at 37° C. and 5% CO2. For agonist assays, serial dilutions of agonistic substances were added to the cells loaded with dye and the change of the fluorescent signal was recorded continually for approx. 90 s using a FlexStation II (Molecular Devices, Biberach, Germany). Addition of wash buffer served as a control. Thus, EC50 concentrations for each compound were computed and provided a measure for the potency of the substance. For antagonist assays, cells loaded with 100 μl of Ca5-dye were pre-incubated with serial dilutions of antagonistic substances for 30 min, before the EC80-concentration of agonist was added to the cells and the change of the fluorescent signal was recorded continually for approx. 90 s. Thus, IC50 concentrations were computed for each compound and provided a measure for the inhibitory activity of the compounds at the NTR1.
On the technique in general: Calcium assays in cells follow changes in intracellular calcium, usually with a dye or a luminescent sensor.

Assay [2] addresses T1, NTR1. Briefly: Radioligand binding assay NTR1 (example part II). The conditions noted are these: 0.05 nM 125I-(Tyr3-neurotensin), 60 min at 4° C.; read-out: IC50 [nM] RLB. As for the experimental part: In order to determine the binding affinity of compounds comprising a radiolabel for NTR1, a radioligand binding assay was carried out. A radioligand is a radioactive biochemical substance that is used for diagnosis or for research-oriented study of cellular receptor systems of the body. In […] systems it is often used to quantify the binding of a test molecule to the binding site of radioligand. The higher the affinity of the molecule, the more radioligand is displaced from the binding site. The amount of bound radioligand can be measured by scintillation counting and thereby quantified. This assay is commonly used to calculate binding constants of molecules to receptors.
The NTR1 radioligand binding assay was performed by Cerep (Celle l'Evescault, France; Catalog reference 0109) according to Vita et al., FEBS Lett., 1993, 317, 139-142. NTR1 was prepared from CHO cells recombinantly expressing the human receptor and incubated with 0.05 nM ^125I-(Tyr^3-neurotensin) and serial dilutions of the test compounds. […] The result for each test compound is expressed as IC50 concentration and provides a measure for the affinity of the test compound for NTR1.

The next assay has as its target M3 (h) (Homo sapiens (Human), UniProt P20309). Briefly: ExpresSProfile: muscarinic receptor 3, antagonist radioligand. The format is binding. Conditions: Reference Compound.
The next assay has as its target mu (MOP) (h) (Homo sapiens (Human), UniProt P35372). Briefly: ExpresSProfile: mu opioid receptor, agonist radioligand. The conditions noted are these: Reference Compound. The format is binding.
The next assay has as its target 5-HT3 (h) (Homo sapiens (Human), UniProt P46098). The assay can be described thus: ExpresSProfile: 5-hydroxytryptamine channel 3, antagonist radioligand. The assay is classed as binding. The conditions noted are these: Reference Compound.
The target of a further assay is EP4 (h) (Homo sapiens (Human), UniProt P35408). Briefly: ExpresSProfile: prostaglandin e receptor type 4, agonist radioligand. The format is binding. Conditions: Reference Compound.
Another assay concerns the target NK3 (h) (Homo sapiens (Human), UniProt P29371). Briefly: ExpresSProfile: neurokinin receptor 3, antagonist radioligand. The format is binding. Conditions: Reference Compound.
For the next assay, the target named is NK2 (h) (Homo sapiens (Human), UniProt P21452). The assay can be described thus: ExpresSProfile: neurokinin receptor 2, agonist radioligand. The assay is classed as binding. Conditions: Reference Compound.
NK2 (h), sequence (P21452 whole entry): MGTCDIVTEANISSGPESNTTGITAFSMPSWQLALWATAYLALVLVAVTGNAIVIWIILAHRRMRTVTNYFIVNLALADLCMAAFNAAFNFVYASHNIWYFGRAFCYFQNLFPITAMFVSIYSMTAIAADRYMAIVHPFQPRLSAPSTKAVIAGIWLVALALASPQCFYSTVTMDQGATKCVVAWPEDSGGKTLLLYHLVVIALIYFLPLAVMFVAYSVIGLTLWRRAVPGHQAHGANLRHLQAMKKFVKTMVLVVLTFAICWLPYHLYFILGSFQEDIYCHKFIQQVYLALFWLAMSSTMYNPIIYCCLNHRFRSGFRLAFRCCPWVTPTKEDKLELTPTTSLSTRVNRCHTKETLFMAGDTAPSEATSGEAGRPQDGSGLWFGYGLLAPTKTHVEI
For the next assay, the target named is 5-HT2A (h) (Homo sapiens (Human), UniProt P28223). Briefly: ExpresSProfile: 5-hydroxytryptamine receptor 2A, antagonist radioligand. The assay is classed as binding. Conditions: Reference Compound.
5-HT2A (h), sequence (P28223 whole entry): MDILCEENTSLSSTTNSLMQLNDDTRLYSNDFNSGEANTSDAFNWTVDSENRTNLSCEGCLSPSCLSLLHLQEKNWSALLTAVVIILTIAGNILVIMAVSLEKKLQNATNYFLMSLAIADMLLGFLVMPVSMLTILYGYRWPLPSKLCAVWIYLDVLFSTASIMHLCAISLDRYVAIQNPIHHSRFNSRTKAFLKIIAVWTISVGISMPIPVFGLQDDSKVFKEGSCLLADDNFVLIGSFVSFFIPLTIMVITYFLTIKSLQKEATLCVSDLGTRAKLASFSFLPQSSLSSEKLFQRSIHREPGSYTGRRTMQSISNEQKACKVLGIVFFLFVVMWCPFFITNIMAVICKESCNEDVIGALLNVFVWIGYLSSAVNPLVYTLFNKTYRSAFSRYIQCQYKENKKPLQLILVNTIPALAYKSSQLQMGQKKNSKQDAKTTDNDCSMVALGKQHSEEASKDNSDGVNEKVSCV
Another assay has as its target MT1 (ML1A) (h) (Homo sapiens (Human), UniProt P48039). The assay can be described thus: ExpresSProfile: melatonin receptor 1, agonist radioligand. The format is binding. Conditions: Reference Compound.
A further assay deals with M2 (h) (Homo sapiens (Human), UniProt P08172). Briefly: ExpresSProfile: muscarinic receptor 2, antagonist radioligand. The format is binding. Conditions: Reference Compound.
M2 (h), sequence (P08172 whole entry): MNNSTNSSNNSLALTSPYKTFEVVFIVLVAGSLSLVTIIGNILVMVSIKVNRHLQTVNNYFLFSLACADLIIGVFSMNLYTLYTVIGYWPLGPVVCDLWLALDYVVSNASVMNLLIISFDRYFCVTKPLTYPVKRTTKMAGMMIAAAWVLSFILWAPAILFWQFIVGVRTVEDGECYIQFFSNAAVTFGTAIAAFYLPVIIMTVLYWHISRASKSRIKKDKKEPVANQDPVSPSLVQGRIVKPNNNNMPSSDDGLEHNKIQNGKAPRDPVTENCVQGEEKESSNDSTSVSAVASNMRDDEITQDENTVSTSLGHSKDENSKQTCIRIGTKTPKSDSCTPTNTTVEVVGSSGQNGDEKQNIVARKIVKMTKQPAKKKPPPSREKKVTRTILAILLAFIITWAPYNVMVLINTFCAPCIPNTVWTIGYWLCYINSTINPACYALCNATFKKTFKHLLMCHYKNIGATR
Another assay has as its system alpha 1 (non-selective). The assay can be described thus: ExpresSProfile: alpha1 adrenergic receptor, antagonist radioligand. The assay is classed as binding. Conditions: Reference Compound.
The next assay concerns the target 5-HT1B (Rattus norvegicus, UniProt P28564). Briefly: ExpresSProfile: 5-hydroxytryptamine receptor 1B, antagonist radioligand. The assay is classed as binding. Conditions: Reference Compound.
In another assay the target is 5-HT6 (h) (Homo sapiens (Human), UniProt P50406). Briefly: ExpresSProfile: 5-hydroxytryptamine receptor 6, agonist radioligand. The assay is classed as binding. Conditions: Reference Compound.
5-HT6 (h), sequence (P50406 whole entry): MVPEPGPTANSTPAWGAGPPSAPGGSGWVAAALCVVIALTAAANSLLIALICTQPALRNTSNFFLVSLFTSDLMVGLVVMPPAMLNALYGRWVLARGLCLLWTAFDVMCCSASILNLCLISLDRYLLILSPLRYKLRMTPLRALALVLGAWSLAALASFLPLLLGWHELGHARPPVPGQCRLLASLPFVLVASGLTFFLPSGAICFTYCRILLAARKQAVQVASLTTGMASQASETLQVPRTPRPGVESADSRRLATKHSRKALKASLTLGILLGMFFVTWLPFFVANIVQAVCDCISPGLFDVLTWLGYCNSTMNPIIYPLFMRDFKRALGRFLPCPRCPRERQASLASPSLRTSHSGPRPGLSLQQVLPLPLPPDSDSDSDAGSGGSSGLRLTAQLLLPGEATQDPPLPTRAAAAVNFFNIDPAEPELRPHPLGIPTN
The next assay has as its system KV channel. The assay can be described thus: ExpresSProfile: KV channel, antagonist radioligand. Conditions: Reference Compound. The assay is classed as binding.
For another assay, the system named is sst (non-selective). The assay can be described thus: ExpresSProfile: somatostatin receptor, agonist radioligand. The assay is classed as binding. Conditions: Reference Compound.

pKi: −log10 of the molar value.

5-HT2B (h), sequence (P41595 whole entry): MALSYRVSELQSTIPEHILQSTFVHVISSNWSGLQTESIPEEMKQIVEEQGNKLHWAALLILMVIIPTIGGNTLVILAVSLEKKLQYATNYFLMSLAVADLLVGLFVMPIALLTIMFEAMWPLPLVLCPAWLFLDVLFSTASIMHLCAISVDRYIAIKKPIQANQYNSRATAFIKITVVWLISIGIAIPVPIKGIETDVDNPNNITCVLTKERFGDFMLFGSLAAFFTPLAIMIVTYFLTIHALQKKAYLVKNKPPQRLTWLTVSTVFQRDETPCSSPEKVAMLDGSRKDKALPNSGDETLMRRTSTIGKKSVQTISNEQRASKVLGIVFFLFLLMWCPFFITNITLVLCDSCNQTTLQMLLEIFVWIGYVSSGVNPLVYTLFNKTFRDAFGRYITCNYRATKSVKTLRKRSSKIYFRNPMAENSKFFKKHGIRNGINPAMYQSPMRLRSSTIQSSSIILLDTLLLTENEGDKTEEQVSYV
5-HT3 (h), sequence (P46098 24-478): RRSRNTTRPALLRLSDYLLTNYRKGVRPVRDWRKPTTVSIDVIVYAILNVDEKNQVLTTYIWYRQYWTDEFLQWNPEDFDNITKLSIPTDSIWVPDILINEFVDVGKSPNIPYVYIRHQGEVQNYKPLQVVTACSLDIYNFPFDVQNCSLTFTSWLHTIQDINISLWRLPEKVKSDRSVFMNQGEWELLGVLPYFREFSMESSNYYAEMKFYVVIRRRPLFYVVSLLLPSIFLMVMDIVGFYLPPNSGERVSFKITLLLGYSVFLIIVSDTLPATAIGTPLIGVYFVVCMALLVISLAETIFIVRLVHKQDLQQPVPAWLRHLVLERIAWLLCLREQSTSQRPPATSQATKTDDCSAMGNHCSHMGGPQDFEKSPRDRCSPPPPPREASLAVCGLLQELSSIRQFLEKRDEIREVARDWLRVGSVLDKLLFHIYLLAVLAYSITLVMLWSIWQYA
mu (MOP) (h), sequence (P35372 whole entry): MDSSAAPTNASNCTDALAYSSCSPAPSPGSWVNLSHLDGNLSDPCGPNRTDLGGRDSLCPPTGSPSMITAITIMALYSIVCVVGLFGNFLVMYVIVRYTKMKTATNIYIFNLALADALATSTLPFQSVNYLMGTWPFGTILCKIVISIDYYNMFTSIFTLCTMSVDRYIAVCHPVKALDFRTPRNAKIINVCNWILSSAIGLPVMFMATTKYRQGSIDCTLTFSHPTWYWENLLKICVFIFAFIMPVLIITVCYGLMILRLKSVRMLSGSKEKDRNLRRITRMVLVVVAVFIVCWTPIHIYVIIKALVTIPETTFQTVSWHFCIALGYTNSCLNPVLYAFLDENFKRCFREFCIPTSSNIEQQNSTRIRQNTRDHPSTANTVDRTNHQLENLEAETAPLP
MT1 (ML1A) (h), sequence (P48039 whole entry): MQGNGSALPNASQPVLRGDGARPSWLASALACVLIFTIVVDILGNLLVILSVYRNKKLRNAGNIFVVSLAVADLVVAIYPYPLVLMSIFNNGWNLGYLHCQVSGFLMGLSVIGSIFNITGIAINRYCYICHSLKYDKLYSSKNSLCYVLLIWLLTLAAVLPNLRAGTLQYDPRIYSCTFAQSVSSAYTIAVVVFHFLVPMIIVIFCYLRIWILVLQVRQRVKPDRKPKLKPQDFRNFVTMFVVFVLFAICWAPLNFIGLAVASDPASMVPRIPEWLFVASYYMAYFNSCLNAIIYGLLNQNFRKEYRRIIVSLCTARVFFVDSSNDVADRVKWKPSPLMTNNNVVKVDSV
M3 (h), sequence (P20309 whole entry): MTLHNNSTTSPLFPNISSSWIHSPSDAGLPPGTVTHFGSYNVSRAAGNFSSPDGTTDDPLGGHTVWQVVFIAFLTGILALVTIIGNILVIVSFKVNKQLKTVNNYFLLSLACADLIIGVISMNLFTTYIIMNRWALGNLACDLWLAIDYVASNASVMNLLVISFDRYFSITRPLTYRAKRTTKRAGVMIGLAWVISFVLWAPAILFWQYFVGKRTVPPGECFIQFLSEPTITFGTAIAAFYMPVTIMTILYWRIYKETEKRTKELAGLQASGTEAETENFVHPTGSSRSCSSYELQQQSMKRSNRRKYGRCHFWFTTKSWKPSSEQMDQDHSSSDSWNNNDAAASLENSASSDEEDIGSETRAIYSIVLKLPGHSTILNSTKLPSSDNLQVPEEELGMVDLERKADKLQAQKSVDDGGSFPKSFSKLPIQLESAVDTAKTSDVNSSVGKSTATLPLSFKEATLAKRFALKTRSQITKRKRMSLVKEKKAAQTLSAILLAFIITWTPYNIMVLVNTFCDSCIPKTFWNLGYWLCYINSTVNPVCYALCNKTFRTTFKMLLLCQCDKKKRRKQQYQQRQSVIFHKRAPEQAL
NK3 (h), sequence (P29371 whole entry): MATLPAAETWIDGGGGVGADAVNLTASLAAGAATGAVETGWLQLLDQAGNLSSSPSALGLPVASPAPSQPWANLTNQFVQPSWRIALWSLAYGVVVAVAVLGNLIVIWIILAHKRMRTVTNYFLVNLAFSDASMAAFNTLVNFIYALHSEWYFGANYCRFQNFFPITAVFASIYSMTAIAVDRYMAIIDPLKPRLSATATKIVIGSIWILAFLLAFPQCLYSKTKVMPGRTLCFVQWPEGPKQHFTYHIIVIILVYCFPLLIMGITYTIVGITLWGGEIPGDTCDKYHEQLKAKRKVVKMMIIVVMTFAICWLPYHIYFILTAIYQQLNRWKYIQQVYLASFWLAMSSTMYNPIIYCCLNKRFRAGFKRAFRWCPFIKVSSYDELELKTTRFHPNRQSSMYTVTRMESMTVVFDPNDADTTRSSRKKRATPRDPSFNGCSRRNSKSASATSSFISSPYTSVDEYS

Usually pKi stands for the Ki on a negative log10 scale, so that one unit is a factor of ten. Turning to `COc1cc(CC(C)N)c(OC)cc1I` (racemic) [(±)DOI], the “nH Ref” value at 5-HT2B (h) is given as 1.0. Besides, on 5-HT2B (h) (read-out: Ki Ref), the pKi is 8.51.

The term IC50 denotes the point on the concentration scale where inhibition reaches its midpoint. For `COc1cccc(OC)c1-c1cc(C(=O)NC2(C(=O)O)C3CC4CC(C3)CC2C4)nn1-c1ccc(C(=O)N(C)CCCN(C)CCCN(C)C(=O)CCC(=O)NCCCOCCOCCOCCCNC(=O)CN2CCN(CC(=O)O)CCN(CC(=O)O)CCN(CC(=O)O)CC2)cc1C(C)C` (stereo not shown) [(IIIb), 2-{[1-(4-{[3-({3-[(DOTA-Ttds)-methyl-amino]-propyl}-methyl-amino)-propyl]-methyl-carbamoyl}-2-isopropyl-phenyl)-5-(2,6-dimethoxy-phenyl)-1H-pyrazole-3-carbonyl]-amino}-adamantane-2-carboxylic acid], the results for the IC50 on NTR1 [1] and on NTR1 [2] were 16.6 nM and 5.2 nM, respectively. For the compound `COc1cccc(OC)c1-c1cc(C(=O)NC2(C(=O)O)C3CC4CC(C3)CC2C4)nn1-c1ccc(C(=O)N(C)CCCN(C)CCCN(C)C(=O)CCCCCNC(=O)CN2CCN(CC(=O)O)CCN(CC(=O)O)CCN(CC(=O)O)CC2)cc1C(C)C` (stereo not shown) [(IIIc), 2-{[1-(4-{[3-({3-[(DOTA-Ahx)-methyl-amino]-propyl}-methyl-amino)-propyl]-methyl-carbamoyl}-2-isopropyl-phenyl)-5-(2,6-dimethoxy-phenyl)-1H-pyrazole-3-carbonyl]-amino}-adamantane-2-carboxylic acid], the values for the IC50 against NTR1 [1] and at NTR1 [2] were 11.8 nM and 5.7 nM, respectively. Take `COc1cccc(OC)c1-c1cc(C(=O)NC2(C(=O)O)C3CC4CC(C3)CC2C4)nn1-c1ccc(C(=O)N(C)CCCN(C)CCCN(C)C(=O)CCC(C(=O)O)N2CCN(CC(=O)O)CCN(CC(=O)O)CC2)cc1C(C)C` (stereo not shown) [(IIId), 2-{[1-(4-{[3-({3-[(NODAGA)-methyl-amino]-propyl}-methyl-amino)-propyl]-methyl-carbamoyl}-2-isopropyl-phenyl)-5-(2,6-dimethoxy-phenyl)-1H-pyrazole-3-carbonyl]-amino}-adamantane-2-carboxylic acid]: the IC50 at NTR1 [1] was 14.5 nM; on NTR1 [2], 3.7 nM. For `COc1cccc(OC)c1-c1cc(C(=O)NC2(C(=O)O)C3CC4CC(C3)CC2C4)nn1-c1ccc(C(=O)N(C)CCCN(C)CCCN(C)C(=O)CCC(=O)NCCCOCCOCCOCCCNC(=O)CCC(C(=O)O)N2CCN(CC(=O)O)CCN(CC(=O)O)CC2)cc1C(C)C` (stereo not shown) [(IIIe), 2-{[1-(4-{[3-({3-[(NODAGA-Ttds)-methyl-amino]-propyl}-methyl-amino)-propyl]-methyl-carbamoyl}-2-isopropyl-phenyl)-5-(2,6-dimethoxy-phenyl)-1H-pyrazole-3-carbonyl]-amino}-adamantane-2-carboxylic acid] the same measures were 21.4 nM and 4.9 nM. Regarding `COc1cccc(OC)c1-c1cc(C(=O)NC2(C(=O)O)C3CC4CC(C3)CC2C4)nn1-c1ccc(C(=O)N(C)CCCN(C)CCCN(C)C(=S)Nc2ccc(NC(=S)NCCCCCN(O)C(=O)CCC(=O)NCCCCCN(O)C(=O)CCC(=O)NCCCCCN(O)C(C)=O)cc2)cc1C(C)C` (stereo not shown) [(IIIf), 2-({5-(2,6-Dimethoxy-phenyl)-1-[2-isopropyl-4-(methyl-{3-[methyl-(3-{1-methyl-3-[4-(3-DFO-thioureido)-phenyl]-thioureido}-propyl)-amino]-propyl}-carbamoyl)-phenyl]-1H-pyrazole-3-carbonyl}-amino)-adamantane-2-carboxylic], the IC50 at NTR1 [1] worked out at 17.5 nM; at NTR1 [2], 3 nM.

As to `COc1cccc(OC)c1-c1cc(C(=O)NC2(C(=O)O)C3CC4CC(C3)CC2C4)nn1-c1ccc(C(=O)N(C)CCCN(C)CCCN(C)C(=O)c2ccc(F)cc2)cc1C(C)C` (stereo not shown) [(IIIg), 2-{[5-(2,6-Dimethoxy-phenyl)-1-(4-{[3-({3-[(4-fluoro-benzoyl)-methyl-amino]-propyl}-methyl-amino)-propyl]-methyl-carbamoyl}-2-isopropyl-phenyl)-1H-pyrazole-3-carbonyl]-amino}-adamantane-2-carboxylic acid], the IC50 against NTR1 [1] is 14.5 nM; on NTR1 [2], 2.3 nM.

Turning to `COc1cccc(OC)c1-c1cc(C(=O)NC2(C(=O)O)C3CC4CC(C3)CC2C4)nn1-c1ccc(C(=O)N(CCCN)CCCN(C)C)cc1C(C)C` (stereo not shown) [(V), 2-{[1-{4-[(3-Amino-propyl)-(3-dimethylamino-propyl)-carbamoyl]-2-isopropyl-phenyl}-5-(2,6-dimethoxy-phenyl)-1H-pyrazole-3-carbonyl]-amino}-adamantane-2-carboxylic acid], the values for the IC50 on NTR1 [1] and on NTR1 [2] were 8.95 nM and 5.3 nM, respectively. In the case of `COc1cccc(OC)c1-c1cc(C(=O)NC2(C(=O)O)C3CC4CC(C3)CC2C4)nn1-c1ccc(C(=O)N(CCCNC(=O)CCC(=O)NCCCOCCOCCOCCCNC(=O)CN2CCN(CC(=O)O)CCN(CC(=O)O)CCN(CC(=O)O)CC2)CCCN(C)C)cc1C(C)C` (stereo not shown) [(Vb), 2-{[5-(2,6-Dimethoxy-phenyl)-1-(4-{(3-dimethylamino-propyl)-[3-(DOTA-Ttds-amino)-propyl]-carbamoyl}-2-isopropyl-phenyl)-1H-pyrazole-3-carbonyl]-amino}-adamantane-2-carboxylic], the IC50 was found to be 26 nM against NTR1 [1] and 2.4 nM at NTR1 [2]. Take `C[N+]1(C)CCC(OC(=O)C(c2ccccc2)c2ccccc2)CC1.[I-]` [Compound 4-DAMP]: the “nH Ref” value at M3 (h) was 1.1. `C[C@@H](NC(=O)[C@@H](N)Cc1ccc(O)cc1)C(=O)NCC(=O)N(C)[C@@H](Cc1ccccc1)C(=O)NCCO` [DAMGO]: the “nH Ref” value on mu (MOP) (h) worked out at 1.0. In the case of `CN1[C@@H]2CC[C@H]1C[C@@H](OC(=O)c1cc(Cl)cc(Cl)c1)C2` [MDL 72222], at 5-HT3 (h), the “nH Ref” value turned out to be 0.8.

For `CCCCC[C@H](O)/C=C/[C@H]1[C@H](O)CC(=O)[C@@H]1C/C=C\CCCC(=O)O` [PGE2], at EP4 (h), the “nH Ref” value is reported as 1.1.

For `CC[C@H](NC(=O)c1c(C)c(-c2ccccc2)nc2ccccc12)c1ccccc1` [SB 222200], the “nH Ref” value at NK3 (h) came out at 0.9. Regarding `CCCC[C@H](NC(=O)[C@H](CC(C)C)NC(=O)CNC(=O)[C@@H](NC(=O)[C@H](Cc1ccccc1)NC(=O)[C@H](CO)NC(=O)[C@@H](N)CC(=O)O)C(C)C)C(N)=O` [[Nleu10]-NKA (4-10)], the “nH Ref” value on NK2 (h) is listed as 0.8. On to `O=C(c1ccc(F)cc1)C1CCN(CCn2c(=O)[nH]c3ccccc3c2=O)CC1` [ketanserin], for which, on 5-HT2A (h), the “nH Ref” value is 1.0. Regarding `COc1ccc2[nH]cc(CCNC(C)=O)c2c1` [melatonin], the “nH Ref” value on MT1 (ML1A) (h) is listed as 0.9. On to `COc1ccccc1CNCCCCCCNCCCCCCCCNCCCCCCNCc1ccccc1OC` [methoctramine], for which the “nH Ref” value on M2 (h) was determined as 0.9.

For the compound `COc1cc2nc(N3CCN(C(=O)c4ccco4)CC3)nc(N)c2cc1OC` [prazosin], in the assay with alpha 1 (non-selective), the “nH Ref” value is 1.2. In the case of `NCCc1c[nH]c2ccc(O)cc12` [serotonin], the “nH Ref” value came out at 0.9 at 5-HT1B and 0.8 on 5-HT6 (h). For “alpha-dendrotoxin (QPRRKLCILHRNPGRCYDKIPAFYYNQKKKQCERFDWSGCGGNSNRFKTIEECRRTCIG)”, in the assay on KV channel, the “nH Ref” value was found to be 1.7. In addition, at KV channel (read-out: Ki Ref), the pKi was 9.70. As to somatostatin-14, the “nH Ref” value in the assay on sst (non-selective) is 0.8. Further, at sst (non-selective) (read-out: Ki Ref), the pKi was 9.96.
